# Laboratory results: the supplement of paper PMC10331698
# ± gives the standard deviation of the averaged measurements.
# What was measured:
# Test in all cases: level (log10 ratio to DMSO vehicle control); higher = higher biomarker level / cell amount than vehicle control
# Details in all cases: in DMSO
# [1] = compound: C=CC(=O)OCCC(F)(F)C(F)(F)C(F)(F)C(F)(F)C(F)(F)C(F)(F)C(F)(F)C(F)(F)F [8:2 Fluorotelomer acrylate]
# Method: (§1)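 BioMAP Diversity Plus panel of 12 human primary cell co-culture systems (3C, 4H, LPS, SAg, BT, BF4T, BE3C, CASM3C, HDF3CGF, KF3CT, MyoF, Mphg). Compounds were added 1 h before stimulation and left for 24 h (MyoF 48 h; BT 72 h for soluble read-outs or 6 d for IgG). Biomarkers were read by ELISA, cytotoxicity by SRB, PBMC viability and proliferation by Alamar Blue. Each well value was divided by the mean of 8 DMSO control wells on the same plate and log10 transformed; duplicate blinded samples were tested at 4 concentrations.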
# Methotrexate = compound: CN(Cc1cnc2nc(N)nc(N)c2n1)c1ccc(C(=O)N[C@@H](CCC(=O)O)C(=O)O)cc1 [Methotrexate]
# Method: as §1
# [2] = compound: O=P(O)(O)CCC(F)(F)C(F)(F)C(F)(F)C(F)(F)C(F)(F)C(F)(F)F [2-(Perfluorohexyl)ethylphosphonic acid]
# Method: as §1
# [3] = compound: O=S(=O)(OCC(F)(F)F)C(F)(F)C(F)(F)C(F)(F)C(F)(F)F [2,2,2-Trifluoroethyl perfluorobutanesulfonate]
# Method: as §1
# Perfluoropinacol = compound: OC(C(F)(F)F)(C(F)(F)F)C(O)(C(F)(F)F)C(F)(F)F [Perfluoropinacol]
# Method: as §1
# [4] = compound: OCCCCC(F)(F)C(F)(F)C(F)(F)C(F)(F)F [4:4 Fluorotelomer alcohol]
# Method: as §1
Test System,level (log10) ([1]; 6700 nM),level (log10) ([1]; 20000 nM),level (log10) ([1]; 60000 nM),level (log10) (Methotrexate; 1500 nM),level (log10) (Methotrexate; 4400 nM),level (log10) (Methotrexate; 13000 nM),level (log10) (Methotrexate; 40000 nM),level (log10) ([2]; 6700 nM),level (log10) ([2]; 20000 nM),level (log10) ([2]; 60000 nM),level (log10) ([3]; 6700 nM),level (log10) ([3]; 20000 nM),level (log10) ([3]; 60000 nM),level (log10) (Perfluoropinacol; 6700 nM),level (log10) (Perfluoropinacol; 20000 nM),level (log10) ([4]; 6700 nM),level (log10) ([4]; 20000 nM),level (log10) ([4]; 60000 nM)
LPS:CD40,-0.008 ± 0.017,-0.0285 ± 0.036,-0.031 ± 0.016,-0.033 ± 0.018,-0.0475 ± 0.011,-0.009 ± 0.028,-0.0155 ± 0.03,0.002 ± 0.062,-0.012 ± 0.018,0.0205 ± 0.028,-0.014 ± 0.017,-0.0495 ± 0.0035,-0.104 ± 0.064,-0.0285 ± 0.073,-0.16 ± 0.03,-0.0175 ± 0.063,-0.0095 ± 0.028,-0.042 ± 0.027
LPS:CD142/Tissue Factor,0.0375 ± 0.0035,0.0245 ± 0.044,0.0085 ± 0.03,-0.0105 ± 0.018,-0.0155 ± 0.039,0.022 ± 0.076,-0.0035 ± 0.0021,0.0045 ± 0.1,0.054 ± 0.047,0.119 ± 0.052,0.0325 ± 0.12,-0.069 ± 0.13,-0.153 ± 0.13,-0.0795 ± 0.0035,-0.038 ± 0.02,0.003 ± 0.027,0.031 ± 0.027,-0.0095 ± 0.023
LPS:M-CSF,0.001 ± 0.0085,-0.006 ± 0.023,-0.03 ± 0.0014,0.0235 ± 0.005,0.0035 ± 0.019,0.0235 ± 0.0035,-0.0065 ± 0.03,-0.0175 ± 0.074,0.0055 ± 0.043,0.0255 ± 0.019,-0.01 ± 0.016,-0.046 ± 0.02,-0.09 ± 0.0085,0.0135 ± 0.015,-0.1085 ± 0.00071,0.0085 ± 0.0078,-0.001 ± 0.017,0.018 ± 0.0085
BT:sIL-17F,-0.018 ± 0.061,-0.0565 ± 0.022,-0.03 ± 0.014,-0.039 ± 0.11,-0.02 ± 0.025,-0.064 ± 0.088,-0.179 ± 0.075,0.0655 ± 0.084,0.008 ± 0.0014,-0.0175 ± 0.069,0.003 ± 0.023,0.0145 ± 0.0064,-0.0275 ± 0.005,-0.063 ± 0.028,-0.23 ± 0.033,-0.0645 ± 0.0092,-0.107 ± 0.015,-0.161 ± 0.15
3C:CXCL8/IL-8,0.009 ± 0.0057,0.012 ± 0.035,0.0555 ± 0.049,0.035 ± 0.016,-0.0015 ± 0.059,0.0055 ± 0.023,0.042 ± 0.093,-0.0115 ± 0.05,-0.0035 ± 0.0021,0.0545 ± 0.03,0.0105 ± 0.012,0.014 ± 0.024,0.064 ± 0.071,0.0215 ± 0.012,-0.0255 ± 0.026,-0.029 ± 0.0085,-0.031 ± 0.0057,0.0005 ± 0.0078
BF4T:MMP-3,-0.014 ± 0.0057,-0.022 ± 0.0057,0.0085 ± 0.028,0.0045 ± 0.025,-0.0285 ± 0.018,-0.012 ± 0.031,0.015 ± 0.024,-0.0205 ± 0.005,-0.0125 ± 0.022,-0.002 ± 0.023,-0.012 ± 0.0085,-0.0055 ± 0.0035,0.02 ± 0.037,-0.013 ± 0.04,-0.008 ± 0.0057,0.0075 ± 0.021,0.017 ± 0.041,0.0295 ± 0.067
4H:VEGFR2,0.019 ± 0.024,0.0175 ± 0.026,0.016 ± 0.04,-0.0035 ± 0.04,-0.028 ± 0.035,-0.014 ± 0.017,0.022 ± 0.0057,0.0465 ± 0.015,0.0335 ± 0.0035,-0.002 ± 0.027,-0.0285 ± 0.03,0.0005 ± 0.019,0.025 ± 0.0014,-0.02 ± 0.023,-0.138 ± 0.064,-0.0535 ± 0.036,-0.0665 ± 0.005,-0.0205 ± 0.047
LPS:CCL2/MCP-1,-0.0105 ± 0.0021,-0.014 ± 0.0071,0.015 ± 0.041,-0.0335 ± 0.074,-0.03 ± 0.055,-0.0295 ± 0.1,-0.0565 ± 0.064,-0.016,-0.0075 ± 0.005,-0.0105 ± 0.019,-0.0345 ± 0.012,-0.0435 ± 0.022,-0.101 ± 0.067,0.0205 ± 0.00071,-0.103 ± 0.0078,-0.006 ± 0.0071,-0.002 ± 0.023,-0.006 ± 0.011
LPS:IL-1alpha,0.021 ± 0.013,0.0315 ± 0.052,0.0315 ± 0.0078,-0.003 ± 0.024,0.003 ± 0.017,0.005 ± 0.031,0.0465 ± 0.077,0.0055 ± 0.0092,-0.026 ± 0.014,-0.0195 ± 0.087,-0.061 ± 0.079,-0.104 ± 0.041,-0.172 ± 0.052,0.0305 ± 0.011,0.041 ± 0.0014,-0.01 ± 0.04,-0.021 ± 0.028,0.014 ± 0.048
BF4T:CXCL8/IL-8,-0.0395 ± 0.021,-0.017 ± 0.028,-0.004 ± 0.017,0.035 ± 0.027,0.027 ± 0.071,0.041 ± 0.057,0.0365 ± 0.12,-0.0405 ± 0.00071,-0.0595 ± 0.0064,-0.034 ± 0.0085,0.0295 ± 0.0064,0.017,0.0385 ± 0.044,0.081 ± 0.024,0.0865 ± 0.032,-0.013 ± 0.021,0.018 ± 0.0057,0.0185 ± 0.005
BT:sIL-6,0.0525 ± 0.019,0.029 ± 0.0028,0.0215 ± 0.039,0.0125 ± 0.013,-0.034 ± 0.1,-0.0095 ± 0.059,-0.2 ± 0.033,0.0645 ± 0.013,-0.007 ± 0.0042,0.0015 ± 0.025,0.089 ± 0.0085,0.158 ± 0.02,0.231 ± 0.033,-0.073 ± 0.051,-0.0655 ± 0.019,0.036 ± 0.033,-0.0255 ± 0.005,-0.069 ± 0.09
BE3C:IL-1alpha,-0.007 ± 0.021,-0.015 ± 0.0042,0.0165 ± 0.029,-0.012 ± 0.0085,-0.0255 ± 0.023,-0.0095 ± 0.054,0.007 ± 0.033,-0.01 ± 0.0014,-0.0245 ± 0.005,-0.007 ± 0.023,0.0045 ± 0.011,0.0025 ± 0.0078,0.015 ± 0.013,-0.041 ± 0.021,-0.093 ± 0.0071,0.0255 ± 0.00071,0.0095 ± 0.011,0.0155 ± 0.021
3C:CD87/uPAR,0.007 ± 0.027,-0.0065 ± 0.025,-0.0025 ± 0.036,0.0005 ± 0.0092,0.001 ± 0.047,0.01 ± 0.071,-0.0095 ± 0.013,0.0365 ± 0.03,0.0125 ± 0.00071,-0.0385 ± 0.0092,0.0115 ± 0.023,-0.014 ± 0.035,-0.139 ± 0.099,-0.159 ± 0.04,-0.29 ± 0.022,-0.018 ± 0.057,-0.0155 ± 0.005,0.012 ± 0.0014
LPS:sTNF-alpha,-0.0245 ± 0.025,-0.029 ± 0.027,-0.0175 ± 0.012,0.0165 ± 0.033,0 ± 0.079,-0.045 ± 0.024,-0.0525 ± 0.069,0.008 ± 0.0085,0.0105 ± 0.026,0.007 ± 0.0042,-0.0075 ± 0.043,-0.0745 ± 0.076,-0.225 ± 0.018,-0.0005 ± 0.025,0.008 ± 0.03,0.0195 ± 0.11,0.0205 ± 0.12,0.0155 ± 0.14
